For 97 molecules, cytotoxicity results are on record in ChEMBL document CHEMBL3507680, “University of Dundee, Gates Library screen for HepG2 cell viability”.

The nature of this data set: Human HepG2 cell viability assay in 384 well format. Type of data set: toxicity, cell-based. The arrangement: dose 125 nL, time 70.5 hour; cytotoxicity at 70.5 h: concentration not given beside the values. To be noted: HepG2 cells, read-out: Inhibition.

Regarding `CCC1(CC)Cc2ccccc2-c2nc(CN(C)C)nc(O)c21`, the cytotoxicity at 70.5 h was determined as 27.5%.
As for `Cn1cccc1C(=O)N1CCc2ccc(=O)n(C)c2CC1`, the cytotoxicity at 70.5 h was -6.17%.
The result for `CC(C)CNC(=O)[C@H]1CCS(=O)(=O)[C@@H]2CN(Cc3cccnc3)C[C@H]12` reads -4.4%; that for `Cc1ccccc1N1CC2(CCN(c3nncs3)C2)CC1=O` (configuration not stated), -1.13%; that for `O=C(NCCN1CCC(c2cccs2)CC1)c1ccccc1C(F)(F)F`, 1.14%.
`O=C(Nc1nc2c(s1)CN(S(=O)(=O)C1CC1)CC2)c1c(F)cccc1F`: the cytotoxicity at 70.5 h came to 3.16%.
The result for `Cc1cccc(CS(=O)(=O)NCC(O)Cc2ccccc2)c1` (configuration not stated) reads 0.192%; that for `COc1ccccc1OCC(=O)NCC(O)(c1ccccc1)C1CC1` (configuration not stated), -3.14%; that for `CC(=O)N1CCC(Oc2ccc(Cl)cn2)CC1`, 0.563%.
The result for `CS(=O)(=O)N1CCC(Oc2cnccn2)CC1` reads -5.72%.
The result for `CN(C)CC1CSCCCN1C(=O)c1ccc(=O)[nH]c1` (configuration not stated) reads 10.8%; that for `CN(C)CC1CSCCCN1C(=O)c1ccc(C(C)(C)C)cc1` (configuration not stated), -0.949%.
Take `COCCN(Cc1ccoc1)C(=O)c1c(F)cccc1Cl`: the cytotoxicity at 70.5 h is -0.424%.
Regarding `Cc1nsc(C(=O)N2CCc3ccccc3C2)n1`, the cytotoxicity at 70.5 h came to 28.2%.
Turning to `CC(C)(C)C(=O)NCCn1ccc(-c2ccncc2)n1`, the cytotoxicity at 70.5 h was -4.99%.
The result for `Cn1cnnc1S(=O)(=O)C1CCN(S(=O)(=O)c2c(Cl)cccc2Cl)CC1` reads -8.23%; that for `CNC(=O)CS(=O)(=O)C1CCN(S(=O)(=O)C2CC2)CC1`, -3.01%; that for `CNC(=O)CS(=O)(=O)C1CCN(S(=O)(=O)c2ccccc2Br)CC1`, -8.95%.
On to `CC(C)CNc1nc(C(=O)/N=c2\[nH]nc(C(C)(C)C)s2)cs1`, for which the cytotoxicity at 70.5 h worked out at 4.48%.
The result for `CC(C)n1[nH]c(=O)c2c1NC(=O)CC2c1cccnc1` (configuration not stated) reads 9.01%.
The result for `CCOC(=O)N1CCN(C(=O)c2sc(-c3ccc(F)cc3)nc2C)CC1` reads -8.29%.
The result for `Cc1nc(-c2ccccc2F)sc1C(=O)N1CCN(C)CC1` reads -10.6%; that for `O=C(NCCc1ccccc1)C1CCCN(c2ccc3nncn3n2)C1` (configuration not stated), -9.33%.
With `CCCNC(=O)c1sc(Nc2ccc(Cl)cn2)nc1C`, the cytotoxicity at 70.5 h is -5%.
The result for `COC(=O)Cn1cccc(S(=O)(=O)N2CCC(C)CC2)c1=O` reads 41%; that for `CC1CCN(S(=O)(=O)c2cccn(CC(=O)N3CCOCC3)c2=O)CC1`, -16%.
Take `O=C(Cn1cc(C(=O)O)ccc1=O)NCc1ccc(F)c(Cl)c1`: the cytotoxicity at 70.5 h is -13.4%.
For the molecule `CC(C)(C)C(=O)Cn1nc(-c2ccccc2F)ccc1=O`, the cytotoxicity at 70.5 h was -21.7%.
The result for `O=C1CC(c2ccccc2)c2c(n3ccsc3nc2=O)N1` (configuration not stated) reads -20%; that for `COc1ccc(C2SCC(=O)Nc3ccsc32)cc1` (configuration not stated), -3.24%; that for `CC(C)c1nnc2ccc(N3CCC(C(=O)Nc4nccs4)CC3)nn12`, 10.7%.
The result for `O=C(Cn1nc2c(cc1=O)CSCC2)NC(Cc1ccccc1)C(=O)O` (configuration not stated) reads 23%.
In the case of `O=C(O)c1cc2c(nc1O)CC(c1cccc(Cl)c1)CC2=O` (configuration not stated), the cytotoxicity at 70.5 h was -2.93%.
The result for `COc1cccc(-c2nc(C)c(C(=O)NC(CO)CCSC)s2)c1` (configuration not stated) reads -25%.
Consider `O=C(c1nc(-c2ccc3cc[nH]c3c2)no1)N1CCCC1`, for which the cytotoxicity at 70.5 h is -5.08%.
Consider `CC[C@H](C)[C@H](NC(=O)Cc1csc(-c2cccc(Cl)c2)n1)C(=O)O`, for which the cytotoxicity at 70.5 h was -27.4%.
The result for `CC(C)N1CCn2c(nc3cc(C(N)=O)ccc32)C1` reads -16.5%; that for `Cc1ccc2c(ccn2CCC(=O)N2CCC(C(N)=O)CC2)c1`, -21.3%.
On to `Cc1oc(-c2nc(C#N)c(N(C)C)o2)cc1S(=O)(=O)N1CCCC1`, for which the cytotoxicity at 70.5 h was -21.5%.
The result for `CC1CCc2nc(O)c(C(=O)NCc3cccc(F)c3)cc2C1` (configuration not stated) reads -3.12%; that for `O=c1c2cnc(N3CCCCC3)nc2ccn1-c1ccccc1`, 19%; that for `O=c1[nH]c2c(c(=O)n1C1CCCCC1)CCC2NCCc1ccccc1` (configuration not stated), -17.4%.
The result for `CC(C)NC(=O)c1sccc1N(C)S(=O)(=O)c1ccc(Cl)cc1` reads -8.11%; that for `Cc1cc2nc(SCC(=O)N3CCOCC3)n(CC(C)C)c(=O)c2[nH]1`, -7.46%; that for `O=c1[nH]c2nc(N3CCSCC3)ncc2c(=O)n1-c1cccc(F)c1`, -0.348%.
The result for `CN1CCN(c2ncc3c(=O)n(-c4cccc(F)c4)c(=O)[nH]c3n2)CC1` reads -12.6%; that for `Cc1noc(C2CCCCN2C(=O)NC2CCCC2)n1` (configuration not stated), -7.87%; that for `O=C(O)c1nnn(-c2ccc(OC(F)(F)F)cc2)c1-c1ccncc1`, -10.5%.
`NC(=O)c1ccc2c(c1)nc1n2CCN(Cc2ccco2)C1`: the cytotoxicity at 70.5 h was -8.52%.
As to `COc1cccc2c1ccn2CCC(=O)N1CCCC(C(=O)O)C1` (configuration not stated), the cytotoxicity at 70.5 h was determined as 18.7%.
The result for `CC(C)N1CCc2c(C#N)c(NCc3ccco3)n3cnnc3c2C1` reads -10.3%; that for `CC(C)CNC(=O)c1c(-n2cnnn2)sc2c1CCC2`, -13.7%.
The result for `CN(C(=O)Cn1nc(-c2cccs2)ccc1=O)C1CCS(=O)(=O)C1` (configuration not stated) reads 11.2%; that for `Cn1ncc2c1NC(=O)CC2c1ccc(Cl)cc1Cl` (configuration not stated), -15%; that for `Cc1c[nH]nc1C1CN(c2ncccn2)CCO1` (configuration not stated), -3.49%.
As for `c1cc(C2CN(C3CCCCC3)C2)n[nH]1`, the cytotoxicity at 70.5 h was determined as 17.8%.
As for `Cc1cc(C(F)(F)F)nc(C2CCN(C(=O)CO)CC2)n1`, the cytotoxicity at 70.5 h was -6.47%.
The result for `Cc1nn(C)cc1-c1cc(C(=O)NCC(C)(C)c2ccc(F)cc2)n[nH]1` reads 4.21%; that for `Cc1nn(C)cc1-c1cc(C(=O)NCC(C)(C)c2ccccc2F)n[nH]1`, 17.9%.
With `Cc1nn(C)cc1-c1cc(C(=O)NCC(C)(C)c2cccc(F)c2)n[nH]1`, the cytotoxicity at 70.5 h was 1.66%.
The result for `Cc1cc(N(C)C)nc(C2(C)CCCN2CC(N)=O)n1` (configuration not stated) reads -2.11%.
The result for `CC1(c2[nH]ncc2C(N)=O)CCN(S(=O)(=O)c2ccccc2)CC1` reads -2.57%.
The result for `Cc1cc(O)nc(C2CCN(C(=O)CO)CC2)n1` reads -3.54%; that for `CN(CC1(C)COC1)C(=O)c1cc(-c2ccn(C)n2)nc2ccccc12`, 14.1%.
As to `CC(C)(C)c1cc(C(=O)N2CCC(c3cnccn3)CC2)[nH]n1`, the cytotoxicity at 70.5 h is -5.82%.
The result for `CCCn1cc(Cl)c(C(=O)N2C[C@@H](O)[C@H](Oc3ccccc3)C2)n1` reads 1.62%.
Turning to `CN(Cc1ccc(F)cc1)[C@@H]1CN(S(C)(=O)=O)C[C@H]1O`, the cytotoxicity at 70.5 h was -4.5%.
The result for `CNc1cncc(C2CCCN2C(=O)CCn2ccnc2)n1` (configuration not stated) reads -6.98%; that for `CO[C@@H]1CCC[C@@H](N(C)C(=O)c2cn3cc(C)ccc3n2)[C@H]1O`, -8.11%; that for `C[C@@H]1CN(Cc2ccco2)CCN1C(=O)Cc1ccccc1F`, -10.6%.
The result for `CCSCc1nc(O)c2nnn(C3CCN(Cc4ccco4)CC3)c2n1` reads 9.06%; that for `CCSCc1nc(O)c2nnn(C3CCN(Cc4ccoc4)CC3)c2n1`, -14.9%; that for `CS(=O)(=O)N1CCCC(n2nnn(-c3ccccc3)c2=O)C1` (configuration not stated), -8.01%.
As for `CCS(=O)(=O)N1CCCC(n2nnn(-c3ccccc3)c2=O)C1` (configuration not stated), the cytotoxicity at 70.5 h is -4.32%.
Take `CC1(C(=O)N2CCSCC2)CNCCO1` (configuration not stated): the cytotoxicity at 70.5 h worked out at 11.8%.
In the case of `CNC(=O)CCc1cc(C)nc(C2CCN(c3ccccc3)CC2)c1`, the cytotoxicity at 70.5 h was -3.63%.
As to `CNC(=O)CCc1cc(C2CCN(c3cnccn3)CC2)nc(C)n1`, the cytotoxicity at 70.5 h is -8.81%.
The result for `CCCC(=O)NCCc1nc(N(C)C)ncc1-c1ccncc1` reads -7.54%.
`COCC(=O)NCCc1nc(N(C)C)ncc1-c1ccncc1`: the cytotoxicity at 70.5 h was -6.86%.
The result for `CC(C)C(=O)N1CCC([C@@H]2C[C@H](C(F)F)n3ncnc3N2)CC1` reads 9.09%; that for `COCCNCc1cc2ccc(C)c(C)c2[nH]c1=O`, 4.37%; that for `CSc1nnc(C2CCN(C(=O)N3CCCC3)CC2)n1C`, -9.43%.
Take `CSc1nnc(C2CCN(C(=O)N3CCCC3)CC2)n1C(C)C`: the cytotoxicity at 70.5 h amounted to 2.59%.
The result for `CS(=O)(=O)c1cc(Cl)cnc1C1CCCN(C(=O)C2CCOCC2)C1` (configuration not stated) reads -7.95%.
The result for `c1cc(OCc2ccc3c(c2)OCCO3)ccc1CNC1CC1` reads 22.8%; that for `CCN(CC)C1CCN(C(=O)c2cc3cc(C)cc(C)c3nc2C)CC1`, -2.42%; that for `CN(C)[C@@H]1CN(Cc2ccc(O)cc2)C[C@H]1c1cn(C)c2ccccc12`, 3.53%.
For `COc1ccc(C(CNS(=O)(=O)c2cn(C)nc2C)N2CCCC2)cc1` (configuration not stated), the cytotoxicity at 70.5 h worked out at 26.7%.
As to `Cc1ccoc1C(=O)N1CCc2ccc(=O)n(CCN(C)C)c2CC1`, the cytotoxicity at 70.5 h is -3.74%.
The result for `CNC(=O)CN1CC[C@H]2CN(C(=O)c3cccc(C)c3)C[C@H]2C1` reads -2.46%; that for `COCCNC(=O)[C@H]1C[C@@H]2CCN(c3ncccn3)C[C@H]2O1`, -1.44%.
Consider `CC(C)CNC(=O)[C@H]1CCS(=O)(=O)[C@@H]2CN(CC(C)C)C[C@H]12`, for which the cytotoxicity at 70.5 h was -1.81%.
The result for `Cc1cccc(CN2CC3(CCN(Cc4ccco4)CC3)OCC2=O)n1` reads -3.31%; that for `c1cncc(C2COC3(CCN(Cc4cccs4)CC3)C2)c1` (configuration not stated), -6.54%.
Regarding `COc1ccc(CN2CCC3(CC2)CC(c2cccnc2)CO3)cc1` (configuration not stated), the cytotoxicity at 70.5 h is -6.67%.
The result for `COCCn1cc2c(n1)C(CNCc1nccs1)OCC2` (configuration not stated) reads -2.52%; that for `Cc1cccc(CN2CC3(CCN(C4CCOC4)CC3)OCC2=O)n1` (configuration not stated), 0.761%.
